We go through 1 molecule from patent US20150025031A1, “METABOLIC DOWNREGULATION FOR CELL SURVIVAL” (WAKE FOREST UNIVERSITY HEALTH SCIENCES, priority 2012, published 2015).

Assay [1] has as its system C2C12 cells, murine myoblasts. Briefly: MTS metabolic activity of C2C12 cells under hypoxia with adenosine (Example 1). The assay is classed as cell-based. The procedure: Another group receiving daily doses of adenosine ([…], achieved by serial dilution) was incubated for up to 7 days under hypoxia and then placed back into normoxic conditions without additional supply of adenosine. Adenosine was refreshed by the daily exchange of media in which adenosine was completely dissolved. Media to be used under hypoxia was placed in the hypoxic chamber 24 hr prior to use for deoxygenation down to 2% O2. The metabolic activity of viable cells at each pre-determined time point was assessed using an MTS assay, which measures mitochondrial activity of cells.

Assay [2] has as its system C2C12 murine myoblasts. Briefly: C2C12 cell counts (PicoGreen dsDNA) under 0.1% hypoxia, then normoxia. The assay is classed as cell-based. How it is done:
C2C12 murine myoblasts (ATCC) were cultured in a growth medium containing Dulbecco's modified Eagle's medium (DMEM, Gibco) supplemented with 10% FBS, 500 U/mL penicillin and 500 μg/mL streptomycin.
(§1) Hypoxic condition was maintained with a gas mixture containing 0.1% O2, 5% CO2 and 94.9% N2 at 37° C. and full humidity in an X-Vivo System (Biospherix). […] The hypoxic groups were then placed to the hypoxic chamber and incubated up to day 11, whereas the normoxic group continued to be incubated in the regular incubator. No medium change was made on both normoxic and hypoxic groups up to day 11. After transfer to normoxic conditions, cells were cultured in the regular incubator with an exchange of no adenosine-containing, fresh medium every third day.
Cell proliferation of each group was determined by a Quanti-iT PicoGreen dsDNA Kit (Invitrogen). After washed with PBS, cells were lysed with 55 μL of RIPA buffer (Sigma) on ice for 5 min, then the supernatants were mixed with an equal volume of PicoGreen dsDNA quantitation reagent, a fluorescent DNA dye (excitation at 480 nm; emission at 520 nm). The DNA content was quantified using a SpectraMax M5 microplate reader (Molecular Devices). The number of cells was calculated using a standard curve plotted from fluorescent readings of serial dilutions of a known concentration of cells.
Cell viability was visualized using a calcein AM (Invitrogen) where viable cells fluoresce green through the reaction of calcein AM.

Assay [3] concerns C2C12 cells. The experiment in a line: Myotube formation of hypoxia-survived C2C12 cells. The assay is classed as cell-based, murine. Particulars: after 11 days adenosine under hypoxia, 2% horse serum medium 6 days. The procedure: After C2C12 cells that survived the hypoxic stress in the presence of adenosine were transferred to normoxic conditions without further supply of adenosine, they were cultured continuously for 3 days in the growth medium followed by 2% horse serum-containing medium for another 6 days. […] Nuclei were counterstained with DAPI (Vector). Photomicrographs were obtained using a Leica inverted fluorescence microscope. Myotube formation was also observed by Giemsa staining (1:20, Sigma-Aldrich) using a Zeiss upright light microscope.

Assay [4] has as its system C2C12 cells. The experiment in a line: MTS metabolic activity per cell, C2C12 under 0.1% hypoxia. The assay is classed as cell-based, murine. The conditions noted are these: 5 mM adenosine. The procedure: as §1
Mitochondrial metabolic activity of viable cells was assessed using a 3-(4,5-dimethylthiazol-2-yl)-5-(3-carboxymethoxyphenyl)-2-(4-sulfophenyl)-2H-tetrazolium (MTS) assay (Promega). Cells were rinsed with PBS three times followed by the addition of 120 μL of MTS reagent to each well. After an hour of incubation, optical density (OD) of a brown formazan product by dehydrogenase enzymes in metabolically active cells was measured with a microplate reader at 490 nm. The mean OD value obtained from media blanks was standardized as […]. For some analyses, metabolic activity measured at each time point was normalized by the cell number obtained from PicoGreen assay as previously described. The total metabolic activity represented by the area under the curve over time was computed using Origin Pro v. 8 (Origin Lab Corporation).

For assay [5], the system named is C2C12 cells. The experiment in a line: Intracellular ATP level of C2C12 cells under hypoxia. In kind it is cell-based, murine. Particulars: 5 mM adenosine. How it is done: as §1
Intracellular ATP was measured by using the ATP Bioluminescence Assay Kit HS II (Roche Applied Science). Cells were lysed with 50 μL of lysis buffer and transferred into a well, then 50 μl of luciferase reagent was added to it. After mixing, the light emitted was measured and integrated for 10 seconds by using a SpectraMax M5 luminometer (Molecular Devices). The blank value (from a well containing no ATP) was subtracted from each sample's raw data. ATP concentrations were calculated from the linear part of the standard curve prepared with serial dilutions of a known concentration of ATP and expressed as moles per cell. This, in turn, was re-calculated to a percent ATP of that expressed in the cells grown under normoxic condition.

The subject of assay [6] is Soleus muscle tissues. Briefly: Survival of soleus muscle tissue under hypoxia (H&E, EthD-1 dead assay). The assay is classed as cell-based, Sprague Dawley rats. Particulars: 5 mM adenosine, 10 days hypoxic culture. How it is done:
Soleus muscle tissues dissected immediately after sacrifice of Sprague Dawley rats (17 weeks old, 380-400 g, Harlan) were assigned to one of three groups in the growth medium: (1) native tissue group (2) no adenosine-treated hypoxic group and (3) hypoxic group with 5 mM adenosine supplemented in 2 mL of medium. The media was changed every third day. At day 10, a half of the tissue sample was fixed in 10% neutral buffered formalin (Sigma-Aldrich), 6 μm sections were generated by a cryotome (Leica), and stained with hematoxyline and eosin (H&E). Microscopic analysis was performed using a light microscope (Zeiss). Dead assay was assessed on the remaining tissues using 4 μM ethidium homodimer-1 (EthD-1, Invitrogen) to stain dead cells with damaged cell membranes. The stained sections were observed using a fluorescent microscope (Leica). The number of dead cells was quantitated using the “analyze particle” method with Image J software (U.S. National Institute of Health) on the fluorescence images, and its percentage was calculated based on the number of DAPI-stained cells on each section.

Assay [7] relates to Rat tibialis anterior (TA) muscle tissues. The experiment in a line: In vitro ischemic tibialis anterior muscle tissue survival (H&E, TUNEL). The assay is classed as cell-based, Sprague Dawley rats. Particulars: 5 mM injected, 3 days incubation. How it is done: Rat tibialis anterior (TA) muscle tissues were dissected immediately after sacrifice of Sprague Dawley rats (17 weeks old, 380-400 g, Harlan), injected with blank, 5 mM of adenosine or cladribine, and then incubated in 5 mL of complete media for 3 days.
The tissue samples were fixed in 10% neutral buffered formalin (Sigma-Aldrich), 6 μm sections were generated by a cryotome (Leica), and stained with hematoxyline and eosin (H&E) and with TUNEL staining. Microscopic analyses were performed using a light microscope (Zeiss M1) and ImagePro software.

Assay [8] has as its system C2C12 mouse myoblasts. The conditions noted are these: 5 mM.
The test system of assay [9] is C2C12 mouse myoblasts. Particulars: 5 mM; for cellular metabolism under hypoxia: MTS.

Structures are written as SMILES. Read-outs that look alike come from different tables or passages of the source.

With `Nc1ncnc2c1ncn2[C@@H]1O[C@H](CO)[C@@H](O)[C@H]1O` [adenosine], in [1] (22 days under adenosine, various doses), the “restoration of normal proliferation rate after long-term exposure” value is on record as “still demonstrated the ability to restore its normal proliferation rate”. Moreover, the “cellular (metabolic) activity under hypoxic conditions” value in [1] (C2C12, 0.1% O2, daily adenosine up to 7 days, MTS) is “maintained a steady state of cellular activity”. In [1] (C2C12, 0.1% O2 hypoxia, MTS metabolic activity), the “minimum effective concentration of adenosine” value is recorded as “about 1 mM”. The “resumption of normal metabolic activity after adenosine removal” value in assay [1] (adenosine removed at day 7, back to normoxia) was “resumed their normal metabolic activity two days after adenosine was removed at day 7”. In addition, the “growth recovery after transfer to normoxic conditions” value in assay [2] (0.05 mM adenosine, after 11 days 0.1% hypoxia) is “never recovered even after transfer to normoxic conditions”. The “number of cells maintained after 11 days of hypoxic stress” value in assay [2] (1, 2 and 5 mM adenosine, 0.1% hypoxia, day 11) is reported as “two to four”. Further, the “proliferation after transfer to normal oxygen tension” value in [2] (1, 2 and 5 mM adenosine, after 11 days 0.1% hypoxia) is given as “resumed their proliferation at a growth rate comparable to that in normoxic cells”. The “most effective adenosine concentration” value in assay [2] (C2C12 survival, 0.1% hypoxia) is recorded as 5 mM. Also, the “time for onset of re-proliferation” value in assay [2] (after transfer to normoxia, 1, 2, 5 mM) is given as “concentration-dependent”. In [3], the “myotube formation (differentiating capability)” value is “showed capability of forming myotubes”. In addition, the “metabolic activity in early hypoxic phase” value in assay [4] (0.1% hypoxia, MTS per cell) is given as “suppressed initially up to day 5”. Also, the “metabolic activity maintained, of the initial metabolic activity” value in [4] (0.1% hypoxia, day 11, MTS per cell) is recorded as “approximately 68%”. The “metabolic activity after transfer to normoxic conditions” value in [4] (after 11 days hypoxia) was “restored to a level equivalent to that in normoxic cells”. Besides, in [5] (0.1% hypoxia, day 11), the “intracellular ATP level, percentage of that in normoxic cells” value turned out to be 18%. Moreover, the “intracellular ATP level vs control cells” value in assay [5] (throughout the hypoxic duration, p<0.05) is given as “consistently higher ATP level”. Besides, in assay [6], the “degree of muscle damage (H&E)” value is listed as “tissues cultured without adenosine showed more damage than those treated with 5 mM adenosine”. Also, the “dead cells as percentage of number of DAPI-stained cells” value in assay [6] (EthD-1) was determined as 46%. The “number of live nuclei (TUNEL)” value in [7] is given as “slightly increased live nuclei”. Moreover, the “proliferation after drug and hypoxia removed” value was “failed to revive after the hypoxia and drug was removed” in [8] (treated with ADA); “started to regain their normal proliferation” in assay [8] (used alone (no ADA)). The “cell population under hypoxic condition” value in [8] (used alone (no ADA), 7 days hypoxia) was “maintain cell population significantly lower than the no treatment control”. The “cellular metabolism under hypoxia” value was “failed to reduce cellular metabolism and showed increased metabolic activity when compared to control” in assay [9] (treated with ADA); “minimized cellular metabolism” in [9] (used alone (no ADA)). Further, in [9] (used alone (no ADA)), the “metabolism after drug and hypoxia removed” value is recorded as “recovered normal metabolism”.
